Data on 1 molecule can be found in patent publication US8815776B2, “Herbicidal compositions and method of use thereof” (Proactive, LLC, priority 2011, dated 2014).

The data set can be described thus: Solubility of prodiamine in solvents. The class given is physicochemical. From the text: The aprotic solvent is preferably a pyrrolidone such as NMP, though one or more of dimethylsulfoxide (DMSO), dimethylformamide, and gamma-Butyrolactone alone or in mixtures, including mixtures with NMP, are useful. DMSO and gamma-Butyrolactone dissolve 0.24 to 0.25 grams prodiamine per gram solvent. NMP dissolves 0.68 grams prodiamine per gram solvent. The aprotic solvent is the primary solvent in most embodiments of the EC.
There are a number of solvents that are not suitable and would be included only to change the composition.
Fatty amides, also called “fatty acid solvents” in this application, are amides formed from a fatty acid and an amine, of which many are known. Preferred are di-substituted fatty acid amides, which include as non-limiting examples N,N-dimethylcaprylamide (available from Cognis as Agnique™ KE-3658), and […] (available as Halcomid™ M8-10). These compounds can fully or partially replace aprotic solvents, and the solvating capacity approaches that of less-preferred aprotic solvents such as DMSO and gamma-Butyrolactone, that is, 0.24 to 0.25 grams prodiamine per gram solvent. A mixture of C8 and C10 fatty acid dimethylamide, (CAS 1118-92-9 and 14433-76-2) are useful.

Regarding `CCCN(CCC)c1c([N+](=O)[O-])cc(C(F)(F)F)c(N)c1[N+](=O)[O-]` [prodiamine, N3,N3-di-n-propyl-2,4-dinitro-6-(trifluoromethyl)-m-phenylenediamine], the “Solubility, g prodiamine/g solvent” value turned out to be 0.080 g prodiamine/g solvent (solvent Aromatic 150 (Aromatic Hydrocarbon)); 0.070 g prodiamine/g solvent (solvent Aromatic 200 (Aromatic Hydrocarbon)); 0.010 g prodiamine/g solvent (solvent Carbitol TM (Diethylene glycol monomethyl ether)); 0.050 g prodiamine/g solvent (solvent DEGEE (Diethylene glycol monoethyl ether)); 0.008 g prodiamine/g solvent (solvent Glycol DPM (Dipropylene glycol methyl ether)); 0.020 g prodiamine/g solvent (solvent Glycol Ether EB (Diethylene glycol monobutyl ether)). The “Solubility, g prodiamine/g solvent” value (solvent Jefsol 1555 (Proprietary Solvent (Carbonate))) is given as 0.004 g prodiamine/g solvent. Moreover, the “prodiamine dissolved per gram solvent” value (solvent NMP) is 0.68 grams prodiamine per gram solvent.
